The assay concerns HCC 2998. In words: growth of human tumour cells (NCI), 48 h.

Consider one compound from ChEMBL document CHEMBL1201862, “PubChem BioAssay data set” (2004).

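These data come from cells grown in 96-well plates and exposed to compound for 48 hours at five concentrations. At the GI50, growth is halved.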 Calls of active or inactive are those of the source. No stated cut-off is given here; in the data, active = GI50 up to about 1.1 µM and inactive = higher.

With `c1ccc(-c2ccnc3c2ccc2c(-c4ccccc4)ccnc23)cc1`, the GI50 is 3.53 µM (inactive).
